This is an account of results in patent US6902748B1, “Medicines manufactured from old platycodon extracts” (Jang Saeng Doraji Co., Ltd, priority 1999, dated 2005).

Structures are written as SMILES.

The test has as its system edema of both feet of SD-rats. Put plainly: Edema suppression in rheumatic arthritis model (heat-killed Mycobacterium injected into right sole). It is filed as in vivo. The note with it: 4 mg/day; about 20 days after injection. Here is the method:
At about 20 days after injection of 0.6 mg/kg heat-killed 5. Mycobacterium histolyticm to the right sole of the feet of SD-rats, the degree of inhibition against inflammation was investigated by measuring the size of edema of both feet. The rats were divided into 7 groups and examined; feed group (group A) as a control group, not being caused edema, group B which was fed with 4 mg/day of predisolone as edema suppression agents, group C which was fed with 160 mg/day of ordinary platycodon extract, group D which was fed with 20 mg/day of 14 kinds of herbal medicine extract, group E which was fed with 160 mg/day of the old platycodon extract, group F which was fed with 40 mg/day of herbal medicine extract and 160 mg/day of the old platycodon extract. Each group was assigned to have 6 SD-rats.

On to `C[C@]12C=CC(=O)C=C1CC[C@@H]1[C@@H]2[C@@H](O)C[C@@]2(C)[C@H]1CC[C@]2(O)C(=O)CO` [predisolone], for which the “Edema suppression activity in the left foot” value is listed as 83.8% and the “Edema suppression activity in the right foot” value stood at 84.5%.
